US12157730B2, “Heteroaryl derivative, method for producing same, and pharmaceutical composition comprising same as effective component” (VORONOI INC., priority 2019, dated 2024)

biological target: T1, Ba/F3 cell EGFR Exon20 ins NPH (Homo sapiens, UniProt P00533, INS773NPH); assay: Ba/F3 cell proliferation suppression, EGFR Exon20 ins NPH; assay type: cell-based; details: GI50 class; Ba/F3 cell line with NPH inserted at Exon20 of EGFR; 72 hours
T1 construct: expressed in transfected cells; host or cells: Ba/F3
In short: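 After 72 h compound exposure (twelve 3-fold steps, 0.3 nM–50 um final), live cells were measured by CellTiter-Glo luminescence and growth expressed as % of control to derive GI50. Cells were seeded at 3000–5000 per well a day earlier; Ba/F3 medium contained IL-3; three repeats.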

Structure (SMILES) | Ba/F3 (NPH) Activity
C=CC(=O)Nc1cc(Nc2cc(N3OCC[C@@H]3c3ccc(Cl)c(F)c3)ncn2)c(OC)cc1N1CCC(N2CCN(C(C)=O)CC2)CC1 [compound 796, N-(2-(4-(4-acetylpiperazine-1-yl)piperidine-1-yl)-5-((6-((R)-3-(4-chloro-3-fluorophenyl)isoxazolidine-2-yl)pyrimidine-4-yl)amino)-4-methoxyphenyl) acrylamide] | A (GI50 < 50 nM)
C=CC(=O)Nc1cc(Nc2cc(N3OCC[C@@H]3c3ccc(F)cc3F)ncn2)c(OC)cc1N1CCN(C(C)C)CC1 [compound 346, N-(5-((6-((R)-3-(2,4-difluorophenyl)isoxazolidine-2-yl)pyrimidine-4-yl)amino)-2-(4-isopropylpiperazine-1-yl)-4-methoxyphenyl) acrylamide] | A (GI50 < 50 nM)
C=CC(=O)Nc1cc(Nc2cc(N3OCC[C@@H]3c3ccccc3)ncn2)c(OC)cc1N1CCC(N2CC3CC2CN3C)CC1 (stereo partly drawn) [Example 52, N-(4-methoxy-2-(4-(5-methyl-2,5-diazabicyclo [2.2.1]heptane-2-yl)piperidine-1-yl)-5-((6-((R)-3-phenylisoxazolidine-2-yl)pyrimidine-1-yl)amino)phenyl) acrylamide] | A (GI50 < 50 nM)
C=CC(=O)Nc1cc(Nc2cc(N3OCC[C@@H]3c3cccc(C)c3F)ncn2)c(OC)cc1N1CCN(C)CC1 [compound 845, N-(5-((6-((R)-3-(2-fluoro-3-methylphenyl)isoxazolidine-2-yl)pyrimidine-4-yl)amino)-4-methoxy-2-(4-methylpiperazine-1-yl)phenyl)acrylamide] | A (GI50 < 50 nM)
C=CC(=O)Nc1cc(Nc2cc(N3OCC[C@@H]3c3cc(F)ccc3F)ncn2)c(OC)cc1N1CCN(C)CC1 [compound 818, N-(5-((6-((R)-3-(2,5-difluorophenyl)isoxazolidine-2-yl)pyrimidine-4-yl)amino)-4-methoxy-2-(4-methylpiperazine-1-yl)phenyl)acrylamide] | A (GI50 < 50 nM)
C=CC(=O)Nc1cc(Nc2cc(N3OCC[C@@H]3c3ccc(F)c(F)c3F)ncn2)c(OC)cc1N1CCC(N2CCN(C3CC3)CC2)CC1 [Example 170, N-(2-(4-(4-cyclopropylpiperazine-1-yl)piperidine-1-yl)-4-methoxy-5-((6-((R)-3-(2,3,4-trifluorophenyl)isoxazolidine-2-yl)pyrimidine-4-yl)amino)phenyl)acrylamide] | A (GI50 < 50 nM)
C=CC(=O)Nc1cc(Nc2cc(N3OCC[C@@H]3Cc3cccc(F)c3)ncn2)c(OC)cc1N1CCC(N2CCN(C3CC3)[C@@H](C)C2)CC1 [compound 993, N-(2-(4-((S)-4-cyclopropyl-3-methylpiperazine-1-yl)piperidine-1-yl)-5-((6-((S)-3-(3-fluorobenzyl)isoxazolidine-2-yl)pyrimidine-4-yl)amino)-4-methoxyphenyl) acrylamide] | A (GI50 < 50 nM)
C=CC(=O)Nc1cc(Nc2cc(N3OCC[C@@H]3c3ccccc3)ncn2)c(OC)cc1N1C[C@H]2C[C@@H]1CO2 [Example 33, N-(2-((1R,4R)-2-oxa-5-azabicyclo [2.2.1]heptane-5-yl)-4-methoxy-5-((6((R)-3-phenylisoxazolidine-2-yl)pyrimidine-4-yl)amino)phenyl) acrylamide] | A (GI50 < 50 nM)
C=CC(=O)Nc1cc(Nc2cc(N3OCC[C@@H]3c3ccc(F)c(F)c3F)ncn2)c(OC)cc1N1CCC(N2CCN(C3CCC3)CC2)CC1 [Example 187, N-(2-(4-(4-cyclobutylpiperazine-1-yl)piperidine-1-yl)-4-methoxy-5-((6-((R)-3-(2,3,4-trifluorophenyl)isoxazolidine-2-yl)pyrimidine-4-yl)amino)phenyl)acrylamide] | A (GI50 < 50 nM)
C=CC(=O)Nc1cc(Nc2cc(N3OCC[C@@H]3c3cccc4ccccc34)ncn2)c(OC)cc1N1CCC(N2CCN(C)CC2)CC1 [compound 482, N-(4-methoxy-2-(4-(4-methylpiperazine-1-yl)piperidine-1-yl)-5-((6-((R)-3-(naphthalene-1-yl)isoxazolidine-2-yl)pyrimidine-4-yl)amino)phenyl)acrylamide] | A (GI50 < 50 nM)
C=CC(=O)Nc1cc(Nc2cc(N3OCC[C@@H]3c3ccc(F)c(Cl)c3)ncn2)c(OC)cc1N1CCC(N2CCOCC2)CC1 [compound 720, N-(5-((6-((R)-3-(3-chloro-4-fluorophenyl)isoxazolidine-2-yl)pyrimidine-4-yl)amino)-4-methoxy-2-(4-morpholinopiperidine-1-yl)phenyl)acrylamide] | A (GI50 < 50 nM)
C=CC(=O)Nc1cc(Nc2cc(N3OCC[C@@H]3c3cccc(Cl)c3C)ncn2)c(OC)cc1N1CCC(N2CC3CCC(C2)N3C2CC2)CC1 [Example 154, N-(5-((6-((R)-3-(3-chloro-2-methylphenyl)isoxazolidine-2-yl)pyrimidine-4-yl)amino)-2-(4-(8-cyclopropyl-3,8-diazabicyclo [3.2.1]octan-3-yl)piperidine-1-yl)-4-methoxyphenyl) acrylamide] | A (GI50 < 50 nM)
C=CC(=O)Nc1cc(Nc2cc(N3OCC[C@@H]3c3c(F)ccc(F)c3F)ncn2)c(OC)cc1N(C)CCN(C)C [compound 628, N-(2-((2-(dimethylamino)ethyl) (methyl)amino)-4-methoxy-5-((6-((R)-3-(2,3,6-trifluorophenyl)isoxazolidine-2-yl)pyrimidine-4-yl)amino)phenyl)acrylamide] | A (GI50 < 50 nM)
C=CC(=O)Nc1cc(Nc2cc(N3OCC[C@@H]3c3cccc(F)c3Cl)ncn2)c(OC)cc1N1CCC(N2C[C@@H]3CCN(C)[C@@H]3C2)CC1 [compound 448, N-(5-((6-((R)-3-(2-chloro-3-fluorophenyl)isoxazolidine-2-yl)pyrimidine-4-yl)amino)-4-methoxy-2-(4-((3aS,6aS)-1-methylhexahydropyrrolo [3,4-b]pyrrole-5(1H)-yl)piperidine-1-yl)phenyl)acrylamide] | A (GI50 < 50 nM)
C=CC(=O)Nc1cc(Nc2cc(N3OCC[C@@H]3c3ccc4ccccc4c3)ncn2)c(OC)cc1N1CCC(N2CCN(C3CCC3)CC2)CC1 [Example 190, N-(2-(4-(4-cyclobutylpiperazine-1-yl)piperidine-1-yl)-4-methoxy-5-((6-((R)-3-(naphthalene-2-yl)isoxazolidine-2-yl)pyrimidine-4-yl)amino)phenyl)acrylamide] | B (50 nM ≤ GI50 < 500 nM)
C=CC(=O)Nc1cc(Nc2cc(N3OCC[C@@H]3c3ccc(F)c(F)c3)ncn2)c(OC)cc1N1CCC(N2CCOCC2)CC1 [compound 503, N-(5-((6-((R)-3-(3,4-difluorophenyl)isoxazolidine-2-yl)pyrimidine-4-yl)amino)-4-methoxy-2-(4-morpholinopiperidine-1-yl)phenyl)acrylamide] | A (GI50 < 50 nM)
C=CC(=O)Nc1cc(Nc2cc(N3OCC[C@@H]3c3ccc(Cl)c(F)c3)ncn2)c(OC)cc1N1CCN(C)CC1 [compound 795, N-(5-((6-((R)-3-(4-chloro-3-fluorophenyl)isoxazolidine-2-yl)pyrimidine-4-yl)amino)-4-methoxy-2-(4-methylpiperazine-1-yl)phenyl)acrylamide] | B (50 nM ≤ GI50 < 500 nM)
